Laboratory results from ChEMBL document CHEMBL3507680, “University of Dundee, Gates Library screen for HepG2 cell viability”.

Test: Human HepG2 cell viability assay in 384 well format
Type: toxicity, cell-based
Set-up: dose 125 nL, time 70.5 hour; cytotoxicity at 70.5 h: concentration not given beside the values
Details: HepG2 cells, read-out: Inhibition

| Compound | cytotoxicity at 70.5 h |
| --- | --- |
| Cc1cc(C)n(-c2ccc(N3CCC(O)CC3)nc2)n1 | -1.96% |
| CNC(=O)Cc1noc(-c2cc3c(s2)CCCCCC3)n1 | -7.62% |
| Cn1cccc1C(=O)N1CCc2c(CNS(C)(=O)=O)cncc2C1 | -18.4% |
| FC(F)(F)COc1cccc(-c2nc3c([nH]2)CCNC3)c1 | -4.72% |
| O=C(c1ccn(-c2ccccc2Cl)n1)N1CCSCC1 | -14.1% |
| O=C(N1CCOCC1)N1CCN(c2ccnc3ccsc23)CC1 | 39.2% |
| Cc1ccn(-c2ccc(N3CCCN(Cc4ccccc4)CC3)nn2)n1 | 2.19% |
| O=C(CC1CCN(c2cccnn2)CC1)Nc1nncs1 | -5.72% |
| COc1cc(CCC(=O)N2CCC(c3cc4ncc(C)nc4[nH]3)C2)on1 (stereo not drawn) | 19.5% |
| NC(=O)N1CCCC(C(=O)NCCc2nc(Cc3ccccc3)no2)C1 (stereo not drawn) | -17.9% |
| CCC1=N[C@@]2(CC[C@@H]3CN(C(=O)NCc4ccccc4)C[C@@H]32)C(=O)N1 | -7.28% |
| CN(Cc1cccs1)C(=O)CN1CCCCC1Cn1cncn1 (stereo not drawn) | 23.2% |
| CCN1CCC(c2nc3ccc(NC(C)C)cn3n2)CC1 | -0.678% |
| Cn1cccc1C(=O)N1CCc2onc(Cn3cccn3)c2C1 | -5.3% |
| Cc1nsc(N2CCN(C(=O)Nc3ccc4[nH]ccc4c3)CC2)n1 | 1.81% |
| COc1ccnc(C(=O)N2CCCC(c3noc(C)n3)C2)c1 (stereo not drawn) | -12.8% |
| c1csc(CN2CCCn3cnc(COCC4CC4)c3C2)c1 | 0.853% |
| COCCc1noc(CN2CCCC2c2c(C)nn(C)c2OC)n1 (stereo not drawn) | -3.49% |
| Cn1cc(CN2CCC(F)(F)C3(CCN(c4cnccn4)C3)C2)cn1 (stereo not drawn) | -0.766% |
| COc1ccc(N2CCC(NC(=O)c3ccc(C#N)cc3)CC2)cc1 | -4.31% |
| CCN(CC)c1ncc(CNC2CCc3ncnn3C2)s1 (stereo not drawn) | -5.42% |
| CN(CC(=O)N1CCC(Cc2cccc(C(N)=O)c2)C1)C1CCCC1 (stereo not drawn) | 20.8% |
| CC1c2ncc(Cn3cncn3)n2CCN1C(=O)c1ccccn1 (stereo not drawn) | 31.8% |

| Compound | cytotoxicity at 70.5 h |
| --- | --- |
| Cc1noc(CCNC(=O)NCc2ccc(OC3CCCC3)cc2)n1 | 0.994% |
| O=C(NCc1nnc2n1CCC2)N(Cc1ccco1)C1CC1 | -10.5% |
| CCN1CCCC1Cn1ccc2c(OC)c(OC)ccc2c1=O (stereo not drawn) | -6.22% |
| COc1cccc2c(=O)n(Cc3cc(C4CC4)[nH]n3)cnc12 | 0.602% |
| Cc1ccc2[nH]c(CO[C@H]3CN(C(=O)C4CC4)C[C@H]3F)nc2c1 | 3.41% |
| Cc1cccc(C(C(=O)NCC2(Cn3nc(C)cc3C)CC2)N(C)C)c1 (stereo not drawn) | -2.42% |
| Cc1nc(C2CCCN(C(=O)c3cccc4c3OCO4)C2)sc1C (stereo not drawn) | -2.18% |
| COc1ncc(NCc2cc(C#N)cs2)cc1C(N)=O | -5.52% |
| O=C(Nc1cccn(Cc2ccc(F)cc2)c1=O)c1cnc[nH]1 | -3.1% |
| CN1CCc2cc(C(=O)N(C)C)c(NCC3CC3)nc2CC1 | -1.63% |
| N#Cc1ccc(CN2CCN(Cc3ccncc3Cl)CC2=O)cc1 | 2.38% |
| Cc1cnc(C(=O)N2CCC3(CCN(Cc4ccccn4)C3=O)C2)cn1 (stereo not drawn) | 6.84% |
| CN1CCCC1c1nccnc1-c1ccc(C(=O)O)cc1 (stereo not drawn) | 11% |
| Cc1nn(C)c(Cl)c1C1CCCN1C(=O)c1cc(C2CC2)on1 (stereo not drawn) | 3.63% |
| CCC(C(=O)NC1(CN2CCOCC2)CCCC1)n1cccn1 (stereo not drawn) | -2.56% |
| Cc1ccc(C)c(S(=O)(=O)N2CCN(C)C3(CCC(=O)N(C)CC3)C2)c1 (stereo not drawn) | -13.3% |
| CS(=O)(=O)N[C@@H]1COC[C@@H]2CN(Cc3ccoc3)C[C@@H]21 | -11.6% |
| CS(=O)(=O)c1ccc(CC(=O)N2CCN3CCNC(=O)C3C2)cc1 (stereo not drawn) | -2.91% |
| Cc1ccnc(N2CCCC(c3noc(C(C)C)n3)C2)n1 (stereo not drawn) | 6.3% |
| CN(Cc1ccccn1)C1CC2(CCN(Cc3ccccn3)CC2)C1 | -10.9% |
| CO[C@@H]1CCN(Cc2nccs2)C[C@@H]1Cc1cccc(C)c1 | -3.84% |
| CN(Cc1cccc(Cl)c1)S(=O)(=O)N1CCOCC1 | 1.29% |
| CC(C)(C)NS(=O)(=O)c1ccc(NC(=O)C2CC2)cc1 | 7.98% |

| Compound | cytotoxicity at 70.5 h |
| --- | --- |
| CCC(CNC(=O)OC)(OC)c1ccccc1 (stereo not drawn) | -0.855% |
| CCCc1cc(=O)[nH]c(SCc2ccccn2)n1 | -2.16% |
| CC(=O)c1cc(CC(=O)NCc2ccsc2)cs1 | -1.03% |
| NC(=O)c1cnc(NC2CCC(c3ccccc3)CC2)c(Cl)c1 (stereo not drawn) | -2.31% |
| CCn1cnnc1CNC(=O)Cc1ccc2c(c1)OCCO2 | -14.5% |
| Cc1nc(CN2CCCC(CCc3ccccc3C(F)(F)F)C2)co1 (stereo not drawn) | 22.6% |
| CC(C)S(=O)(=O)N1C[C@@H](O)[C@H](N(C)Cc2ccc(F)cc2)C1 | 0.65% |
| COCCNC(=O)c1ccc2c(=O)n3c(nc2c1)CCCC3 | -2.97% |
| CN(C)c1nc2c(c(N3CCC(O)CC3)n1)CN(CC1CCOC1)CC2 (stereo not drawn) | -3.69% |
| COCCN(Cc1ccc(F)cc1C#N)CC(F)(F)F | -10.5% |
| CC(C(=O)Nc1ccccn1)n1ccc(C(F)(F)F)n1 (stereo not drawn) | -15.3% |
| Cc1cc(CN(C2CC2)C(C)C(C)C)no1 (stereo not drawn) | -2.85% |
| Cc1nn(C)cc1CN1CCCn2nc(CNC(=O)C3CCC3)cc2C1 | -3.2% |
| Cc1cnc(N)nc1NCCSCc1[nH]cnc1C | -1.94% |
| COc1cccc(CNc2c(C)cnc3c2c(=O)n(C)c(=O)n3C)c1 | 35.6% |
| CCn1nnc2c1C(COCC(=O)N(C)C)CN(Cc1ccoc1)C2 (stereo not drawn) | -0.882% |
| O=C(Nc1ccccc1N1CCOC1=O)N1CCc2sccc2C1 | -8.21% |
| COCCN(C)C(=O)Nc1ccc(C(=O)NCCC(=O)OC)cc1 | -8.51% |
| Cc1nc(C2CCCN2CCc2ccccn2)no1 (stereo not drawn) | -5.46% |
| CC(C)(C)C(=O)N1C[C@H](c2ccsc2)[C@H]2CN(C3CCCC3)CC[C@H]21 | -4.45% |
| CC(C)c1nccn1C1CCCN(C(=O)c2cccc3c2OCO3)C1 (stereo not drawn) | 8.22% |
| Cc1ccccc1C1(C(=O)NCCN2CCOCC2)CCOCC1 | -9.98% |
| CC(C)OCCOCc1cccc(NC(=O)NCc2cnn(C)c2)c1 | -0.106% |

| Compound | cytotoxicity at 70.5 h |
| --- | --- |
| Cc1csc(CCNC(=O)Nc2cc(C(F)(F)F)c[nH]c2=O)n1 | -1.34% |
| CC(=O)NCC(=O)N1CCc2[nH]c(-c3ccccc3)nc2C1 | -1.22% |
| CC(C)NC(=O)c1ccc2c(c1)C1(CCN(C(C)C)CC1)C(=O)N2 | 0.266% |
| c1csc(CN2CCc3nnc(COc4cncnc4)n3CC2)c1 | -6.3% |
| O=C(C1CCCO1)N1CCC2(CC1)COCCN(Cc1cccnc1)C2 (stereo not drawn) | -2.16% |
| O=C(NCCN1CCCCCC1=O)c1ccn(-c2ccc(F)cc2)n1 | -6.58% |
| CC(O)C1CCN(Cc2cnc3c(-c4ccccc4)cnn3c2)CC1 (stereo not drawn) | -7.53% |
| O=C(c1ccccc1N1CCOCC1)N1CCCC(n2cccn2)C1 (stereo not drawn) | 1.3% |
| Cc1cc(O)c(OCC(=O)Nc2nc3c(s2)CCCC3)cn1 | -22.4% |
| CN(C)C(=O)C1CCCN1CCCNC(=O)Cc1ccccc1F (stereo not drawn) | -16.1% |
| CCCNC(=O)C(C)n1cc(Br)cn1 (stereo not drawn) | -11.8% |
| O=C1CNc2ncnc(Nc3cnn(Cc4cccc(F)c4)c3)c2N1 | -16.6% |
| CCN(CC)CCNC(=O)c1nn(CC)cc1Cl | 18.6% |
| O=C(CO)N1CCCC2(CCC(=O)N(CC3CC3)C2)C1 (stereo not drawn) | -11% |
| CC(CCc1ccccc1)NC(=O)CN1CCOCC1 (stereo not drawn) | -3.3% |
| CC(C)NC(=O)N1CCC2(CC(=O)N(c3cccc(C#N)c3)C2)C1 (stereo not drawn) | 2.44% |
| CN(C)[C@H]1C[C@@H](Cc2cc(CO)on2)C1(C)C | -14.4% |
| Cc1nn(C)c(C)c1S(=O)(=O)N1CC[C@H]2O[C@@H](C)C[C@H]2C1 | -8.7% |
| Cn1cc([C@@H]2CN(S(=O)(=O)c3ccccc3F)C[C@H]2N)c2ccncc21 | 19% |
| Cc1nc(-c2c(C)noc2C)cc(C2CCN(S(=O)(=O)N(C)C)CC2)n1 | -8.98% |
| C/C=C(\C)CN1C[C@H](NC(=O)CN2CCCC2=O)[C@@H](c2ccc(C)o2)C1 | 9.35% |
| Cc1noc(C)c1CN1C[C@@H]2COC[C@@H](CC(=O)N3CCCCO3)[C@@H]2C1 | -6.43% |
| CCCc1nc(CN2CCOC(Cn3cncn3)C2)cs1 (stereo not drawn) | 22.5% |

| Compound | cytotoxicity at 70.5 h |
| --- | --- |
| COCCN1C(=O)CCC12CCN(c1ncc(F)cn1)CC2 | -2.74% |
| COc1cccc(CN(C)C(=O)CCC(=O)c2ccc(Cl)cc2)c1OC | -10.4% |
| CC(NC1(CNC(=O)OC(C)(C)C)CCOCC1)c1ccccc1 (stereo not drawn) | -5.89% |
| CCn1cc(CNCc2ccc(C(=O)OC)cc2)c(C)n1 | -0.911% |
| O[C@H]1CC[C@@H](Cc2cc(-c3ccc(F)cc3)on2)O[C@@H]1CNCC1CC1 | -5.85% |
| O=C(CCn1cc(Cl)cn1)Nc1nncs1 | 15.8% |
| CC(=O)N1CCN(C(=O)c2ccc3ccn(C)c3c2)CC1 | -15.9% |
| CSc1nnc(CNC(=O)Nc2ccccc2Br)n1C | -3.94% |
| CC(C)c1ccc(C(=O)O)cc1S(=O)(=O)Nc1ccc(=O)n(C)c1 | 2.84% |
| O=C(Nc1ncn(CC(=O)N2CCCCCC2)n1)C1CCCO1 (stereo not drawn) | 2.64% |
| Cc1ccc(CCCC(=O)N2CCN(C3CCCN(C)C3)CC2)s1 (stereo not drawn) | -2.97% |
| Cc1cc(C)nc(N2CCN(Cc3cc4n(n3)CCNC4)CC2)n1 | -8.76% |
| Cc1cc(CN2CCC3(CC2)CC(C(=O)O)N(C(=O)C2CC2)C3)oc1C (stereo not drawn) | -13.7% |
| CN(C)CCNC(=O)c1nc2c(o1)CN(C(=O)c1cccnc1)C2 | 10.9% |
| CN(Cc1cnn(C)c1)Cc1nc(CCc2ccccc2)no1 | -4.56% |
| CCc1ncc2c(n1)CN(Cc1nnc(CC)o1)CC2 | -79.4% |
| O=C(CN1C(=O)c2ccccc2CS1(=O)=O)c1ccccc1 | -6.1% |
| CC(C)(C)c1cc(C(=O)NCCN2CCCS2(=O)=O)[nH]n1 | -14.3% |
| Cc1cncc(CN2CC[C@@](O)(CNC(=O)c3c[nH]cn3)[C@H](O)C2)c1 | -6.5% |
| CC(O)(CCc1ccccc1)CNC(=O)c1ccc(F)cc1 (stereo not drawn) | 14.3% |
| Cc1cnc(CN2CCN(c3ccc4nncn4n3)C(C)C2)cn1 (stereo not drawn) | -15.4% |
